Values quoted from earlier work, collected in patent publication US20110293691A1, “MULTIMODAL ADHESION BARRIER” (priority 2010, published 2011).

Test system: rat model
Conditions: oral or intraperitoneal, about one week prior to surgery and three weeks postoperatively

With `O=C(CC1NCCCC1O)Cn1cnc2cc(Br)c(Cl)cc2c1=O` (stereo not shown) [Halofuginone, 7-bromo-6-chloro-3-[3-(3-hydroxy-2-piperidinyl)-2-oxopropyl]-4(3H)] as the compound, how does the “prevention of adhesions (in words)” value read?
The value was “prevent adhesions in a rat model in a dose dependent manner”.
